From US20230219963A1, “PYRROLO[2,3-D]PYRIMIDINE DERIVATIVES” (Pfizer Inc., priority 2020, published 2023)

Tests used:
Format in all cases: cell-based
IL-23 induced pSTAT3 = experiment: IL-23-induced pSTAT3 in human whole blood (lymphocytes); conditions: Lymphocyte, JAK2/TYK2, read-out: IL-23 induced pSTAT3, cellular potency IC50
Description: (§1) Human whole blood was collected from healthy donors via vein puncture into Vacutainer collection tubes containing sodium heparin in accordance with Pfizer protocols (Protocol No. GOHW RDP-01) approved by the Shulman Institutional Review Board. Blood was warmed to 37° C. priorto use. Human whole blood was aliquoted (90 μL/well) in 96-well, deep-well, V-bottom plates and treated with compounds (5 μL/well) at different concentrations up to 60 μM (0.2% DMSO final) at 37° C. for 60 minutes. This was followed by a challenge with IFNα (5000 U/mL), IFNγ (100 ng/mL), IL-6 (50 ng/mL), IL-10 (30 ng/mL), IL-12 (30 ng/mL), IL-15 (30 ng/mL), IL-21 (50 ng/mL), IL-23 (25 ng/mL), IL-27 (1000 ng/mL), EPO (2 U/mL), TSLP (50 ng/mL) or PBS and incubated for 15 minutes. Anti-cell surface antibodies were added 15 minutes prior to cytokine stimulation; anti-CD3-BV421 (0.5 μL/well) to IL-6-treated and TSLP-treated samples and anti-CD14-BV421 (0.5 μL/well) to IFNγ-treated samples. Samples were treated with warm 1×Lyse/Fix buffer (700 μL/well) to terminate activation and further incubated at 37° C. for 20 minutes to lyse red blood cells. Plates were centrifuged at 300×g for 5 minutes, supernatant was aspirated, and cells were washed with 800 μL/well of staining buffer (D-PBS containing 0.1% FBS and 0.01% sodium azide). Washed cell pellets were resuspended in 350 μL/well of prechilled 90% methanol and incubated at 4° C. for 30 minutes. After the removal of 90% methanol, cells were washed once with staining buffer. All samples were finally suspended in 150 μL/well of the desired anti-phospho-STAT antibodies at 1:150 dilution in staining buffer; anti-pSTAT1-AF647 in IFNγ treated samples; anti-pSTAT1-AF488 and anti-pSTAT3-AF647 in IL-6-treated samples, anti-pSTAT3-AF647 in IFNα, IL-10, IL-21, IL-23 and IL-27 treated samples, anti-pSTAT4-AF647 in IL-12 treated samples, anti-pSTAT5-AF-647 in EPO, IL-15 and TSLP-treated samples. Human primary keratinocytes were cultured in DermaLife™ medium with supplement kit to expand cell population. Cell passages 2 to 5 were used in the assays. Cells were harvested at ˜80% confluence, suspended in warm DermaLife™ medium, aliquoted (90 μL/well) in 96-well, deep-well, V-bottom plates, and incubated at 37° C. for 30 minutes. Cells were then treated with compounds (0.0003 to 20 μM) for 60 minutes and followed by stimulation with IL-4 (2 ng/mL) or IL-13 (20 ng/mL) at 37° C. for 15 minutes. […]
(§2) After overnight incubation at 4° C., anti-pSTAT stained samples were transferred into 96-well polypropylene U-bottom plates and flow cytometric analysis was performed on a LSR Fortessa™ equipped with a HTS plate loader. […] Background fluorescence was defined using unstimulated cells and a gate was placed at the foot of the peak to include ˜0.5% gated population. […]

EPO induced pSTAT5 = experiment: EPO-induced pSTAT5 in human whole blood (all events); conditions: JAK2/JAK2, read-out: EPO induced pSTAT5, cellular potency IC50
Description: as §1, §2

IL-31 induced pSTAT3 = experiment: IL-31-induced pSTAT3 in IFNγ-primed THP-1 cells; conditions: Homo sapiens, JAK1/JAK2, read-out: IL-31 induced pSTAT3, cellular potency IC50
Description: THP-1 cells were maintained in RPMI 1640 medium containing 10% FBS, 50 μM 2 mercaptoethanol, 50 U/mL penicillin, 50 µg/mL streptomycin and 2 mM L-glutamine. THP 1 cells were treated with IFNγ (20 ng/mL) for 18 hours. IFNγ primed THP-1 cells were resuspended in fresh RPMI 1640 medium, treated with compounds (0.0003 to 20 μM) for 60 minutes, followed by stimulation with IL-31 (1 μg/mL) for additional 10 minutes. Cells were then fixed by 2% paraformaldehyde and permeabilized by 90% methanol. Fixed and permeabilized cells were stained with AlexaFluor647™ labeled anti-pSTAT3 antibody (1 to 150 dilution).
After overnight incubation at 4° C., anti-pSTAT stained samples were transferred into 96-well polypropylene U-bottom plates and flow cytometric analysis was performed on a LSR Fortessa™ equipped with a HTS plate loader. For human whole blood samples, lymphocyte population was gated for pSTAT histogram analysis for IFNα, IL-10, IL-12, IL-15, IL-21, IL-23, and IL-27-treated samples; CD14^+ cells for IFNγ-treated samples; CD3^+ cells for IL-6 and TSLP-treated samples; all events (entire populations) for EPO-treated samples. Entire populations of keratinocytes and THP-1 cells were gated for the IL-4, IL-13, IL-22 and IL-31 assays. Background fluorescence was defined using unstimulated cells and a gate was placed at the foot of the peak to include ˜0.5% gated population. Histogram statistical analysis was performed using FACSDiva version 8.0. Relative fluorescence unit, which measures the level of pSTAT, was calculated by multiplying the percent positive population and its mean fluorescence. Inhibition curves and half maximal inhibitory concentration (IC50) values were determined using Prism™ software (Version 8) or the Activity Base data analysis software (ID Business Solutions).

TSLP induced pSTAT5 = experiment: TSLP-induced pSTAT5 in human whole blood (CD3+ cells); conditions: JAK1/JAK2, read-out: TSLP induced pSTAT5, cellular potency IC50
Description: Human whole blood was collected from healthy donors via vein puncture into Vacutainer collection tubes containing sodium heparin in accordance with Pfizer protocols (Protocol No. GOHW RDP-01) approved by the Shulman Institutional Review Board. Blood was warmed to 37° C. priorto use. Human whole blood was aliquoted (90 μL/well) in 96-well, deep-well, V-bottom plates and treated with compounds (5 μL/well) at different concentrations up to 60 μM (0.2% DMSO final) at 37° C. for 60 minutes. This was followed by a challenge with IFNα (5000 U/mL), IFNγ (100 ng/mL), IL-6 (50 ng/mL), IL-10 (30 ng/mL), IL-12 (30 ng/mL), IL-15 (30 ng/mL), IL-21 (50 ng/mL), IL-23 (25 ng/mL), IL-27 (1000 ng/mL), EPO (2 U/mL), TSLP (50 ng/mL) or PBS and incubated for 15 minutes. Anti-cell surface antibodies were added 15 minutes prior to cytokine stimulation; anti-CD3-BV421 (0.5 μL/well) to IL-6-treated and TSLP-treated samples and anti-CD14-BV421 (0.5 μL/well) to IFNγ-treated samples. Samples were treated with warm 1×Lyse/Fix buffer (700 μL/well) to terminate activation and further incubated at 37° C. for 20 minutes to lyse red blood cells. Plates were centrifuged at 300×g for 5 minutes, supernatant was aspirated, and cells were washed with 800 μL/well of staining buffer (D-PBS containing 0.1% FBS and 0.01% sodium azide). Washed cell pellets were resuspended in 350 μL/well of prechilled 90% methanol and incubated at 4° C. for 30 minutes. After the removal of 90% methanol, cells were washed once with staining buffer. […]
as §2

IL-22 induced pSTAT3 = experiment: IL-22-induced pSTAT3 in human keratinocytes; conditions: Keratinocyte, JAK1/TYK2, read-out: IL-22 induced pSTAT3, cellular potency IC50

IC50 (IL-23 induced pSTAT3) [µM]	IC50 (EPO induced pSTAT5) [µM]	IC50 (IL-31 induced pSTAT3) [µM]	IC50 (TSLP induced pSTAT5) [µM]	IC50 (IL-22 induced pSTAT3) [µM]	Compound
6.21	9.47	0.056	0.271	0.198	C[C@H](O)CS(=O)(=O)N[C@H]1C[C@@H](N(C)c2ncnc3[nH]ccc23)C1 (single isomer, unassigned) [IA (M2)]
26.2	9.75	0.0796	0.785	0.703	CN(c1ncnc2[nH]ccc12)[C@H]1C[C@@H](NS(=O)(=O)CCCO)C1 [IB (M1), 3-Hydroxy-N-(cis-3-(methyl(7H-pyrrolo[2,3-d]pyrimidin-4-yl)amino)cyclobutyl)propane-1-sulfonamide]
13.8	18.1	–	–	–	C[C@@H](O)CS(=O)(=O)N[C@H]1C[C@@H](N(C)c2ncnc3[nH]ccc23)C1 (single isomer, unassigned) [IC (M3)]
